For 32 molecules, EC50 and IC50 results are on record in US20230135152A1 (ACURASTEM INCORPORATED, priority 2020, published 2023).

The target of assay [1] is T1, PIKFYVE (Homo sapiens, UniProt Q9Y2I7). In words: Cell-based Pikfyve inhibition activity assay (EEA1 staining, mean vesicle size in BJ fibroblast cells). As to conditions: Table 4, 4 hours treatment, 3 μM Apilimod = 100% inhibition. The gist of the method: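 BJ fibroblasts treated 4 h at 37° C with eleven 3-fold doses (0.03-3000 nM), then fixed and stained for EEA1. Confocal images (20×, 16 tiles/well) analysed for mean vesicle size. Normalised to 0.5% DMSO (0%) and 3 μM apilimod (100%); dose-response fitted with variable slope.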
T1 sequence (Q9Y2I7 whole entry): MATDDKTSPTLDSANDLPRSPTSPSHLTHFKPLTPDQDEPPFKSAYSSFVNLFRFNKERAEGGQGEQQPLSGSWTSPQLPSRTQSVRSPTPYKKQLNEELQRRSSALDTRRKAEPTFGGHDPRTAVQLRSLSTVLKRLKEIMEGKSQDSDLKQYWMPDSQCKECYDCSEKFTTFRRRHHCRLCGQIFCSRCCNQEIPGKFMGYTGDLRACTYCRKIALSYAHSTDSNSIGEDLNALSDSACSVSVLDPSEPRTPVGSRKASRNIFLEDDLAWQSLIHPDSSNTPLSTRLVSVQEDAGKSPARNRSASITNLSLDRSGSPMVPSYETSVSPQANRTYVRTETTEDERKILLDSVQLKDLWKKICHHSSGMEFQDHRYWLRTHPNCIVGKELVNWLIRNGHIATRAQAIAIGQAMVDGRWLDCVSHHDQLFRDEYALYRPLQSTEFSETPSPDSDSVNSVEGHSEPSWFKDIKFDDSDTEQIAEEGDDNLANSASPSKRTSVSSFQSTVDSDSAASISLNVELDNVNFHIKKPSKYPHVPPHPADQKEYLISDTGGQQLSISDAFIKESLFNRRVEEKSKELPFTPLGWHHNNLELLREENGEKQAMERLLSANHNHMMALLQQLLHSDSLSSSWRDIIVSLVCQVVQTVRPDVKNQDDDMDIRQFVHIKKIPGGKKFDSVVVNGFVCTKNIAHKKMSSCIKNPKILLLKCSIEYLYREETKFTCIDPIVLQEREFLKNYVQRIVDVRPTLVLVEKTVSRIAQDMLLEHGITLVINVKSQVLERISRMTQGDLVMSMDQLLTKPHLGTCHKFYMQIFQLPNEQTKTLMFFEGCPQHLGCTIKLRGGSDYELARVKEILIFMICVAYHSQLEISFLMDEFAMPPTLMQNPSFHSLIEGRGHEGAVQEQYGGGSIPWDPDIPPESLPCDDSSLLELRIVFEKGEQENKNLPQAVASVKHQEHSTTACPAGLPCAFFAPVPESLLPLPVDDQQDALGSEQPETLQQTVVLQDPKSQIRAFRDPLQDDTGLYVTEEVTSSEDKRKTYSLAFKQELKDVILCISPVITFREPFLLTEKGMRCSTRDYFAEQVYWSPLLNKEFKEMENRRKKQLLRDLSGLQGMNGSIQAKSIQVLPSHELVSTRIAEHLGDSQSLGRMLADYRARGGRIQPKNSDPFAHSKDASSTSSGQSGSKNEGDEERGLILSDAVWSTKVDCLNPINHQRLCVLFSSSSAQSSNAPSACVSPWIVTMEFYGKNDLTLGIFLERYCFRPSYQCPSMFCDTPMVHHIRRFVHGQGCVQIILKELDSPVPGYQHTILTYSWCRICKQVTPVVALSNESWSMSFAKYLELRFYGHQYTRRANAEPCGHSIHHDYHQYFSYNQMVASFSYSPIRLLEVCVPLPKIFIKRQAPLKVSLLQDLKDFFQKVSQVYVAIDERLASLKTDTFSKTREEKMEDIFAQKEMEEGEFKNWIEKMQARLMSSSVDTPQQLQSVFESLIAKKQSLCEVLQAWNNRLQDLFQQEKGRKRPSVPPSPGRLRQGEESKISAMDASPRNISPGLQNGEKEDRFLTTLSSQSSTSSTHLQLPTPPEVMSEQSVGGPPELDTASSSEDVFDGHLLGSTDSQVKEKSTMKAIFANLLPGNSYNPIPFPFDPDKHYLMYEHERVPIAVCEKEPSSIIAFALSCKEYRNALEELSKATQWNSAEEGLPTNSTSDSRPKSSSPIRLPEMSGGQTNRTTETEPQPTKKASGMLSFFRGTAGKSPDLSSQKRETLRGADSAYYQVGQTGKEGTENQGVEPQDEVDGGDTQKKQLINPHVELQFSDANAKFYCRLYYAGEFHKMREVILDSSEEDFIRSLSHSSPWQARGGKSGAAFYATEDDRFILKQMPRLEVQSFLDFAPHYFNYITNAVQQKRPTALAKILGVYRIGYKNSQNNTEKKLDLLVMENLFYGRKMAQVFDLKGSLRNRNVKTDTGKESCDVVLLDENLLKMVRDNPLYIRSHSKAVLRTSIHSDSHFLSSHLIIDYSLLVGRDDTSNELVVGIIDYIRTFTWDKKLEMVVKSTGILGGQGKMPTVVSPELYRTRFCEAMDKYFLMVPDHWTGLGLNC

Assay [2] concerns the target T1, PIKFYVE. In words: PIKFYVE assay (luciferase ADP-Glo kinase assay, Promega). Format: biochemical. The gist of the method:
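ADP generated in the kinase reaction was detected by ADP-Glo luminescence (luciferase).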
Background: ADP-Glo turns the ADP formed in a reaction into a luminescent signal.

For orientation: pEC50 means the EC50 on a negative log10 scale, so that one unit is a factor of ten. Read a high pEC50 as a small EC50. For orientation: IC50 means the concentration at which inhibition is half-maximal. A lower IC50 goes with greater potency in that assay.

The structures appear in SMILES notation. pEC50: −log10 of the molar value.

In the case of `CN(C)CCc1cc(-c2ccccc2)nn1-c1cc(N2CCOCC2)nc(OCCc2cnn(C)c2)n1` [Compound 220, N,N-dimethyl-2-(1-(2-(2-(1-methyl-1H-pyrazol-4-yl)ethoxy)-6-morpholinopyrimidin-4-yl)-3-phenyl-1H-pyrazol-5-yl)ethan-1-amine], the pEC50 at PIKFYVE [1] was above 7.70. Besides, the IC50 against PIKFYVE [2] (Table 3) is below 3 nM.
Taken in the same sequence, the figures for `Cc1cccc(-c2ccn(-c3cc(N4CCOCC4)nc(OCC(=O)C4CC4)n3)n2)c1` [Compound 109, 1-cyclopropyl-2-((4-morpholino-6-(3-(m-tolyl)-1H-pyrazol-1-yl)pyrimidin-2-yl)oxy)ethan-1-one] were 7.00 to 7.70 and 3 to 10 nM.
Taken in the same sequence, the figures for `Cc1cccc(-c2ccn(-c3cc(N4CCOCC4)nc(OCCc4cnccn4)n3)n2)c1` [Compound 94, 4-(2-(2-(pyrazin-2-yl)ethoxy)-6-(3-(m-tolyl)-1H-pyrazol-1-yl)pyrimidin-4-yl)morpholine] were above 7.70 and below 3 nM.
For `Cc1cccc(-c2cc(CO)n(-c3cc(N4CCOCC4)nc(OCCc4cnn(C)c4)n3)n2)c1` [Compound 234, (1-(2-(2-(1-methyl-1H-pyrazol-4-yl)ethoxy)-6-morpholinopyrimidin-4-yl)-3-(m-tolyl)-1H-pyrazol-5-yl)methanol] the same measures were above 7.70 and below 3 nM.
Consider `Cc1cccc(-c2cc(CN(C)C)n(-c3cc(N4CCOCC4)c4[nH]ccc4n3)n2)c1` [Compound 242, N,N-dimethyl-1-(1-(7-morpholino-1H-pyrrolo[3,2-b]pyridin-5-yl)-3-(m-tolyl)-1H-pyrazol-5-yl)], for which, on PIKFYVE [1], the pEC50 is 5.30 to 6.30. The molecule further had an IC50 on PIKFYVE [2] (Table 3) of 3 to 10 nM.
For `Cc1cccc(-c2ccn(-c3cc(N4CCOCC4)nc(CCc4cccnn4)n3)n2)c1` [Compound 317, 4-(2-(2-(pyridazin-3-yl)ethyl)-6-(3-(m-tolyl)-1H-pyrazol-1-yl)pyrimidin-4-yl)morpholine] the same measures were 6.30 to 7.00 and 3 to 10 nM.
On to `CO[C@H](CO)c1nc(N2CCOCC2)cc(-n2ccc(-c3c[nH]c4ccccc34)n2)n1` (single isomer, unassigned) [Compound 318], for which, on PIKFYVE [1], the negative-log EC50 (pEC50) is above 7.70. This molecule had an IC50 on PIKFYVE [2] (Table 3) below 3 nM.
Take `Cn1cc(CCOc2nc(N3CCOCC3)cc(-n3nc(O)cc3-c3ccccc3)n2)cn1` [Compound 211, 1-(2-(2-(1-methyl-1H-pyrazol-4-yl)ethoxy)-6-morpholinopyrimidin-4-yl)-5-phenyl-1H-pyrazol-3-ol]: the pEC50 at PIKFYVE [1] is 6.30 to 7.00. On PIKFYVE [2] (Table 3), this molecule returned an IC50 below 3 nM.
For `COc1cccc(-c2ccn(-c3cc(N4CCOCC4)nc(N)n3)n2)c1` [Compound 44, 4-(3-(3-methoxyphenyl)-1H-pyrazol-1-yl)-6-morpholino-pyrimidin-2-amine], at PIKFYVE [1], the pEC50 is 6.30 to 7.00. On PIKFYVE [2] (Table 2), this molecule registered a half-inhibitory concentration (IC50) below 5 nM.
For the molecule `Cn1cc(CCOc2nc(N3CCOCC3)cc(-n3nc(-c4ccccc4)cc3C3CC3)n2)cn1` [Compound 216, 4-(6-(5-cyclopropyl-3-phenyl-1H-pyrazol-1-yl)-2-(2-(1-methyl-1H-pyrazol-4-yl)ethoxy)pyrimidin-4-yl)morpholine], at PIKFYVE [1], the pEC50 is 7.00 to 7.70. For the same molecule, the IC50 against PIKFYVE [2] (Table 3) was below 3 nM.
For `CN(C)Cc1cccc(-c2ccn(-c3cc(N4CCOCC4)nc(OCCc4cnn(C)c4)n3)n2)c1` [Compound 193, N,N-dimethyl-1-(3-(1-(2-(2-(1-methyl-1H-pyrazol-4-yl)ethoxy)-6-morpholinopyrimidin-4-yl)-1H-pyrazol-3-yl)phenyl)methanamine] the same measures were 6.30 to 7.00 and below 3 nM.
Taken in the same sequence, the figures for `Cc1cccc(-c2ccn(-c3cc(N4CCOCC4)nc(OCCOc4ccccc4)n3)n2)c1` [Compound 93, 4-(2-(2-phenoxyethoxy)-6-(3-(m-tolyl)-1H-pyrazol-1-yl)pyrimidin-4-yl)morpholine] were 6.30 to 7.00 and 10 to 100 nM.
Taken in the same sequence, the figures for `Cc1cccc(-c2ccn(-c3cc(N4CCOCC4)nc(OCCc4cn(C)cn4)n3)n2)c1` [Compound 118, 4-(2-(2-(1-methyl-1H-imidazol-4-yl)ethoxy)-6-(3-(m-tolyl)-1H-pyrazol-1-yl)pyrimidin-4-yl)morpholine] were 7.00 to 7.70 and below 3 nM.
`COc1nc(N2CCOCC2)cc(-n2nc(-c3cccc(C)c3)cc2CN2CCOCC2)n1` [Compound 236, 4-(2-methoxy-6-(5-(morpholinomethyl)-3-(m-tolyl)-1H-pyrazol-1-yl)pyrimidin-4-yl)morpholine] had a pEC50 on PIKFYVE [1] below 5.30. Further, the IC50 against PIKFYVE [2] (Table 3) is below 3 nM.
Taken in the same sequence, the figures for `CO[C@@H](CO)c1nc(N2CCO[C@H](C)C2)cc(-n2ccc(-c3cccc(C)c3)n2)n1` (single isomer, unassigned) [Compound 308] were 5.30 to 6.30 and 10 to 100 nM.
For `COC[C@@H](O)c1nc(N2CCOCC2)cc(-n2ccc(-c3cccc(C)c3)n2)n1` (single isomer, unassigned) [Compound 170] the same measures were 6.30 to 7.00 and 3 to 10 nM.
For `CC[C@@H](OC)c1nc(N2CCOCC2)cc(-n2ccc(-c3cccc(C)c3)n2)n1` (single isomer, unassigned) [Compound 322] the same measures were 5.30 to 6.30 and 3 to 10 nM.
`Cc1cccc(-c2ccn(-c3cc(N4CCOCC4)nc(OCCn4cnc(CO)c4)n3)n2)c1` [Compound 116, (1-(2-((4-morpholino-6-(3-(m-tolyl)-1H-pyrazol-1-yl)pyrimidin-2-yl)oxy)ethyl)-1H-imidazol-4-yl)methanol]: on PIKFYVE [1], the pEC50 is 6.30 to 7.00. The molecule further displayed an IC50 against PIKFYVE [2] (Table 3) below 3 nM.
Taken in the same sequence, the figures for `CO[C@H](CO)c1nc(N2CCOCC2)cc(-n2ccc(-c3csc4ccccc34)n2)n1` (single isomer, unassigned) [Compound 258] were 6.30 to 7.00 and below 3 nM.
As for `CO[C@H](CO)c1nc(N2CCOCC2)cc(-n2nc(-c3cccc(C)c3)cc2C)n1` (single isomer, unassigned) [Compound 224], the pEC50 at PIKFYVE [1] was 6.30 to 7.00. Moreover, at PIKFYVE [2] (Table 3), the IC50 lay in the range of 3 to 10 nM.
For `Cn1cc(C(O)CCc2nc(N3CCOCC3)cc(-n3ccc(-c4ccccc4)n3)n2)cn1` (stereo not shown) [Compound 79, 1-(1-methyl-1H-pyrazol-4-yl)-3-(4-morpholino-6-(3-phenyl-1H-pyrazol-1-yl)pyrimidin-2-yl)propan-1-ol], the pEC50 on PIKFYVE [1] was 6.30 to 7.00. Further, on PIKFYVE [2] (Table 2), the IC50 is below 5 nM.
`CO[C@@H](CO)c1nc(N2CCOCC2)cc(-n2ccc(-c3csc4ccccc34)n2)n1` (single isomer, unassigned) [Compound 259] showed a negative-log EC50 (pEC50) on PIKFYVE [1] of 6.30 to 7.00. Also, on PIKFYVE [2] (Table 3), the IC50 fell in the range of 3 to 10 nM.
On PIKFYVE [1], `Cc1cccc(-c2cc(CN3CCOCC3)n(-c3cc(N4CCOCC4)nc(OCCc4cnn(C)c4)n3)n2)c1` [Compound 235, 4-(2-(2-(1-methyl-1H-pyrazol-4-yl)ethoxy)-6-(5-(morpholinomethyl)-3-(m-tolyl)-1H-pyrazol-1-yl)pyrimidin-4-yl)morpholine] showed a negative logarithm of the EC50 (pEC50) of 7.00 to 7.70. In addition, the IC50 against PIKFYVE [2] (Table 3) was below 3 nM.
On PIKFYVE [1], `Cc1cccc(-c2ccn(-c3cc(N4CCOCC4)nc(OCCc4cnn(CCN(C)C)c4)n3)n2)c1` [Compound 74, N,N-dimethyl-2-(4-(2-((4-morpholino-6-(3-(m-tolyl)-1H-pyrazol-1-yl)pyrimidin-2-yl)oxy)ethyl)-1H-pyrazol-1-yl)ethan-1-amine] had a pEC50 of 7.00 to 7.70. Further, at PIKFYVE [2] (Table 2), the concentration for half-maximal inhibition (IC50) was below 5 nM.
Regarding `Cc1cccc(-c2ccn(-c3cc(N4CCOCC4)nc(OCCn4cnc(CN(C)C)c4)n3)n2)c1` [Compound 117, N,N-dimethyl-1-(1-(2-((4-morpholino-6-(3-(m-tolyl)-1H-pyrazol-1-yl)pyrimidin-2-yl)oxy)ethyl)-1H-imidazol-4-yl)methanamine], the pEC50 on PIKFYVE [1] was 5.30 to 6.30. At PIKFYVE [2] (Table 3), this molecule showed an IC50 of 10 to 100 nM.
Taken in the same sequence, the figures for `Cc1cccc(-c2ccn(-c3cc(N4CCOCC4)nc(COCc4cn(C)cn4)n3)n2)c1` [Compound 297, 4-(2-(((1-methyl-1H-imidazol-4-yl)methoxy)methyl)-6-(3-(m-tolyl)-1H-pyrazol-1-yl)pyrimidin-4-yl)morpholine] were 6.30 to 7.00 and 3 to 10 nM.
For `Cc1cccc(-c2ccn(-c3cc(N4CCOCC4)nc(C4CCOCC4)n3)n2)c1` [Compound 326, 4-(2-(tetrahydro-2H-pyran-4-yl)-6-(3-(m-tolyl)-1H-pyrazol-1-yl)pyrimidin-4-yl)morpholine] the same measures were 5.30 to 6.30 and 10 to 100 nM.
For `CO[C@@H](CO)c1nc(N2CCOCC2)cc(-n2nc(-c3c[nH]c4ccccc34)cc2C)n1` (single isomer, unassigned) [Compound 261] the same measures were above 7.70 and below 3 nM.
Take `Cn1cc(CCOc2nc(N3CCOCC3)cc(-n3ccc(C4CC4)n3)n2)cn1` [Compound 123, 4-(6-(3-cyclopropyl-1H-pyrazol-1-yl)-2-(2-(1-methyl-1H-pyrazol-4-yl)ethoxy)pyrimidin-4-yl)morpholine]: the pEC50 on PIKFYVE [1] is 5.30 to 6.30. This molecule also displayed a half-inhibitory concentration (IC50) at PIKFYVE [2] (Table 3) of 10 to 100 nM.
Consider `CC(=O)Nc1nc(N2CCOCC2)cc(-n2ccc(-c3cccc(C)c3)n2)n1` [Compound 66, N-(4-morpholino-6-(3-(m-tolyl)-1H-pyrazol-1-yl)pyrimidin-2-yl)acetamide], for which, at PIKFYVE [1], the pEC50 is 6.30 to 7.00. Besides, the IC50 on PIKFYVE [2] (Table 2) was below 5 nM.
Taken in the same sequence, the figures for `Cc1cccc(-c2ccn(-c3cc(N4CCOCC4)nc(OC[C@H](O)c4ccccc4)n3)n2)c1` (single isomer, unassigned) [Compound 58] were 7.00 to 7.70 and below 5 nM.
Take `COc1cccc(-c2ccn(-c3cc(N4CCOCC4)nc([C@@H](CO)OC)n3)n2)c1` [Compound 262, (S)-2-methoxy-2-(4-(3-(3-methoxyphenyl)-1H-pyrazol-1-yl)-6-morpholinopyrimidin-2-yl)ethan-1-ol]: the pEC50 on PIKFYVE [1] was 6.30 to 7.00. On PIKFYVE [2] (Table 3), the IC50 lay in the range of 10 to 100 nM.
